Measured values reported in patent US20050054555A1, “Kahalalide compounds for use in cancer therapy” (priority 2001, published 2005).

Experiments:
[1] = system: patients with advanced or metastatic prostate cancer; assay: Phase I trial KHF-A-001-00: safety of kahalalide F daily x 5 over 1 hour infusion every 21 days; assay type: in vivo, human
Source text: The rate of subject entry and escalation to the next dose level will depend upon assessment of the safety profile of patients entered at each dose level. Toxicity will be evaluated and graded according to the Common Toxicity Criteria, version 2.0.
In order to minimize the number of patients treated at the subtoxic dose levels, a single patient will be treated per dose level with 100% dose escalation in the absence of any toxicity G2 (excluding alopecia) during their first course of treatment. After the occurrence of grade 2 toxicity (excluding asthenia, alopecia, nausea and vomiting or anemia), the dose level is expanded to three patients with only 50% incremental increase in dosage in advancing to the next dose level. For the occurrence of grade 3 non-hematological toxic effects the dose level should be expanded up to six patients. This second cohort of 3 patients will be included consecutively. If the first or second patient develops dose limiting toxicities no further patients will be treated at this dose level, it will be defined as MTD and the accrual will begin at a lower dose level. If only one DLT occurs at this dose level another 3 patients will be included at the next dose level with an increase of 25% only.
There is no intrapatient dose escalation, only de-escalation. If the toxicity is grade 3 or worse in a course of chemotherapy, then the dose is reduced one level for the next course.
The maximum tolerated dose (MTD) is defined as the dose at which at least 2 out of 3 or more than 3 patients experience DLT. However, it is possible that additional patients may experience DLT due to the timing of patient enrollment into that dose level.
Dose limiting toxicities (DLTs) are defined as follows: […]
Grade IV Neutropenia lasting for >5 days or with a temperature >38.5.
Grade IV thrombocytopenia.
Any other grade III or IV non hematological toxicity, excluding nausea, emesis and hypersensitivity reactions.
Grade III or IV liver toxicity if not reversible by day 21.
These toxicities are only considered DLTs if they happen during cycle 1. […]
A dose of 20 mcg/m2 was considered a safe starting dose on the basis of acute toxicity studies in animals. The trial was designed as an accelerated dose escalation (pharmacokinetically guided).

[2] = Phase I trial KHF-A-001-00: plasma pharmacokinetics (LC-MS/MS); assay type: in vivo, human
Method: Bioanalysis of KF was performed by LC-MS/MS.

[3] = 19 patients, daily x5 every 21 days, all dose levels
[4] = 20 patients, daily x5 every 21 days, all dose levels
[5] = 20 patients, daily x5 every 21 days, all dose levels, calcium adjusted
[6] = 20 patients, daily x5 every 21 days, all dose levels, not drug-related

## C/C=C1\NC(=O)[C@H](Cc2ccccc2)NC(=O)[C@@H](C(C)C)NC(=O)[C@@H](C(C)CC)NC(=O)[C@H](NC(=O)C(NC(=O)[C@H](CCCN)NC(=O)[C@H]2CCCN2C(=O)[C@H](NC(=O)[C@@H](NC(=O)[C@@H](NC(=O)[C@H](NC(=O)CCCC(C)C)C(C)C)C(C)O)C(C)C)C(C)C)C(C)CC)C(C)OC(=O)[C@H](C(C)C)NC1=O (single isomer, unassigned) [kahalalide F]
[1]; 320 μg/m2/day, rapidly reversible, preliminary report, 7 patients
  only drug related toxicity to date: CTC grade 3 ASAT
[1]; [3]
  Hematologic toxicity (worst per patient): Hemoglobin, Grade 1: 63.2%
  Hematologic toxicity (worst per patient): Hemoglobin, Grade 2: 26.3%
  Hematologic toxicity (worst per patient): Hemoglobin, Grade 3: 0%
  Hematologic toxicity (worst per patient): Hemoglobin, Grade 4: 0%
  Hematologic toxicity (worst per patient): Leukocytes, Grade 1: 10.5%
  Hematologic toxicity (worst per patient): Leukocytes, Grade 2: 0%
  Hematologic toxicity (worst per patient): Leukocytes, Grade 3: 0%
  Hematologic toxicity (worst per patient): Leukocytes, Grade 4: 0%
  Hematologic toxicity (worst per patient): Neutrophils, Grade 1: 5%
  Hematologic toxicity (worst per patient): Neutrophils, Grade 2: 5%
  Hematologic toxicity (worst per patient): Neutrophils, Grade 3: 0%
  Hematologic toxicity (worst per patient): Neutrophils, Grade 4: 0%
  Hematologic toxicity (worst per patient): Platelets, Grade 1: 21.1%
  Hematologic toxicity (worst per patient): Platelets, Grade 2: 0%
  Hematologic toxicity (worst per patient): Platelets, Grade 3: 0%
  Hematologic toxicity (worst per patient): Platelets, Grade 4: 0%
[1]; [4]
  Most frequently reported non-hematologic toxicities: Diarrhea, Grade 1: 10
  Most frequently reported non-hematologic toxicities: Diarrhea, Grade 2: 5
  Most frequently reported non-hematologic toxicities: Diarrhea, Grade 3: 0
  Most frequently reported non-hematologic toxicities: Diarrhea, Grade 4: 0
  Most frequently reported non-hematologic toxicities: Fatigue, Grade 1: 35
  Most frequently reported non-hematologic toxicities: Fatigue, Grade 2: 10
  Most frequently reported non-hematologic toxicities: Fatigue, Grade 3: 25
  Most frequently reported non-hematologic toxicities: Fatigue, Grade 4: 0
  Most frequently reported non-hematologic toxicities: Hypersensitivity, Grade 1: 20
  Most frequently reported non-hematologic toxicities: Hypersensitivity, Grade 2: 5
  Most frequently reported non-hematologic toxicities: Hypersensitivity, Grade 3: 0
  Most frequently reported non-hematologic toxicities: Hypersensitivity, Grade 4: 0
  Most frequently reported non-hematologic toxicities: Inject-site reaction, Grade 1: 10
  Most frequently reported non-hematologic toxicities: Inject-site reaction, Grade 2: 20
  Most frequently reported non-hematologic toxicities: Inject-site reaction, Grade 3: 0
  Most frequently reported non-hematologic toxicities: Inject-site reaction, Grade 4: 0
  Most frequently reported non-hematologic toxicities: Nausea, Grade 1: 15
  Most frequently reported non-hematologic toxicities: Nausea, Grade 2: 10
  Most frequently reported non-hematologic toxicities: Nausea, Grade 3: 0
  Most frequently reported non-hematologic toxicities: Nausea, Grade 4: 0
  Most frequently reported non-hematologic toxicities: Periph-sens neuro, Grade 1: 20
  Most frequently reported non-hematologic toxicities: Periph-sens neuro, Grade 2: 0
  Most frequently reported non-hematologic toxicities: Periph-sens neuro, Grade 3: 5
  Most frequently reported non-hematologic toxicities: Periph-sens neuro, Grade 4: 0
  Most frequently reported non-hematologic toxicities: Vomiting, Grade 1: 15
  Most frequently reported non-hematologic toxicities: Vomiting, Grade 2: 10
  Most frequently reported non-hematologic toxicities: Vomiting, Grade 3: 0
  Most frequently reported non-hematologic toxicities: Vomiting, Grade 4: 0
  Non-hematologic toxicity, lab abnormalities per patient: Albumin, Grade 1: 30%
  Non-hematologic toxicity, lab abnormalities per patient: Albumin, Grade 2: 10%
  Non-hematologic toxicity, lab abnormalities per patient: Albumin, Grade 3: 5%
  Non-hematologic toxicity, lab abnormalities per patient: Albumin, Grade 4: 0%
  Non-hematologic toxicity, lab abnormalities per patient: Bilirubin, Grade 1: 10%
  Non-hematologic toxicity, lab abnormalities per patient: Bilirubin, Grade 2: 0%
  Non-hematologic toxicity, lab abnormalities per patient: Bilirubin, Grade 3: 0%
  Non-hematologic toxicity, lab abnormalities per patient: Bilirubin, Grade 4: 0%
  Non-hematologic toxicity, lab abnormalities per patient: CPK, Grade 1: 35%
  Non-hematologic toxicity, lab abnormalities per patient: CPK, Grade 2: 0%
  Non-hematologic toxicity, lab abnormalities per patient: CPK, Grade 3: 0%
  Non-hematologic toxicity, lab abnormalities per patient: CPK, Grade 4: 0%
  Non-hematologic toxicity, lab abnormalities per patient: Creatinine, Grade 1: 35%
  Non-hematologic toxicity, lab abnormalities per patient: Creatinine, Grade 2: 0%
  Non-hematologic toxicity, lab abnormalities per patient: Creatinine, Grade 3: 0%
  Non-hematologic toxicity, lab abnormalities per patient: Creatinine, Grade 4: 0%
  Non-hematologic toxicity, lab abnormalities per patient: GGT, Grade 1: 35%
  Non-hematologic toxicity, lab abnormalities per patient: GGT, Grade 2: 15%
  Non-hematologic toxicity, lab abnormalities per patient: GGT, Grade 3: 25%
  Non-hematologic toxicity, lab abnormalities per patient: GGT, Grade 4: 5%
  Non-hematologic toxicity, lab abnormalities per patient: GOT, Grade 1: 40%
  Non-hematologic toxicity, lab abnormalities per patient: GOT, Grade 2: 15%
  Non-hematologic toxicity, lab abnormalities per patient: GOT, Grade 3: 15%
  Non-hematologic toxicity, lab abnormalities per patient: GOT, Grade 4: 10%
  Non-hematologic toxicity, lab abnormalities per patient: GPT, Grade 1: 15%
  Non-hematologic toxicity, lab abnormalities per patient: GPT, Grade 2: 25%
  Non-hematologic toxicity, lab abnormalities per patient: GPT, Grade 3: 20%
  Non-hematologic toxicity, lab abnormalities per patient: GPT, Grade 4: 10%
  Non-hematologic toxicity, lab abnormalities per patient: Hypo P, Grade 1: 10%
  Non-hematologic toxicity, lab abnormalities per patient: Hypo P, Grade 2: 15%
  Non-hematologic toxicity, lab abnormalities per patient: Hypo P, Grade 3: 0%
  Non-hematologic toxicity, lab abnormalities per patient: Hypo P, Grade 4: 0%
  Non-hematologic toxicity, lab abnormalities per patient: HypoK+, Grade 1: 20%
  Non-hematologic toxicity, lab abnormalities per patient: HypoK+, Grade 2: 0%
  Non-hematologic toxicity, lab abnormalities per patient: HypoK+, Grade 3: 0%
  Non-hematologic toxicity, lab abnormalities per patient: HypoK+, Grade 4: 0%
  Non-hematologic toxicity, lab abnormalities per patient: HypoNa+, Grade 1: 10%
  Non-hematologic toxicity, lab abnormalities per patient: HypoNa+, Grade 2: 0%
  Non-hematologic toxicity, lab abnormalities per patient: HypoNa+, Grade 3: 5%
  Non-hematologic toxicity, lab abnormalities per patient: HypoNa+, Grade 4: 5%
[1]; [5]
  Non-hematologic toxicity, lab abnormalities per patient: HypoCa*, Grade 1: 65%
  Non-hematologic toxicity, lab abnormalities per patient: HypoCa*, Grade 2: 0%
  Non-hematologic toxicity, lab abnormalities per patient: HypoCa*, Grade 3: 0%
  Non-hematologic toxicity, lab abnormalities per patient: HypoCa*, Grade 4: 0%
[1]; [6]
  Most frequently reported non-hematologic toxicities: Hypertension, Grade 1: 0
  Most frequently reported non-hematologic toxicities: Hypertension, Grade 2: 0
  Most frequently reported non-hematologic toxicities: Hypertension, Grade 3: 15
  Most frequently reported non-hematologic toxicities: Hypertension, Grade 4: 0
  Non-hematologic toxicity, lab abnormalities per patient: Alk. phosphatase, Grade 1: 35%
  Non-hematologic toxicity, lab abnormalities per patient: Alk. phosphatase, Grade 2: 20%
  Non-hematologic toxicity, lab abnormalities per patient: Alk. phosphatase, Grade 3: 25%
  Non-hematologic toxicity, lab abnormalities per patient: Alk. phosphatase, Grade 4: 5%
[1]; Level I, dose 20 mcg/m2, 1 patient
  Worst toxicity: none
[1]; Level II, dose 40, 1 patient
  Worst toxicity: none
[1]; Level III, dose 80, 1 patient
  Worst toxicity: none
[1]; Level IV, dose 160, 1 patient
  Worst toxicity: none
[1]; Level VI, dose 425, 3 patients
  Worst toxicity: none
[1]; Level VIII, dose 700, 3 patients
  Worst toxicity: none
[1]; daily x5 schedule
  hematological toxicity: no hematological toxicity was seen
  most commonly seen liver toxicity in the MTD: grade 4 transaminases elevation
[2]; dose level 320 μg/m2/day
  Maximum plasma concentrations: 35 to 50 ng/mL
[2]; male, human, plasma, iv infusion over 1 h, 5 consecutive days every 3 weeks, first course, 20-320 μg/m2/day, read-out: Total plasma clearance
  clearance: 267 mL/min
[2]; male, human, plasma, iv infusion over 1 h, 5 consecutive days every 3 weeks, first course, read-out: terminal half-life (converted)
  half-life: 27.6 min
[2]; whole dose range 20-320 μg/m2/day
  relationship between dose and AUC: linear relationship
